The subject of test [1] is Thermicanus. The test can be described thus: Microbe control test in recycled fiber pulp (white water + recycled packaging board), 24 h contact time. The format is cell-based. The note with it: after 24 h at +50° C.; NGS sequencing and total bacterial qPCR; control 3.2*10^7; performic acid 14 mg/l, monochloramine 15 mg/l, mixture in total 15 mg/l, mixture in total 8 mg/l + zinc 7 mg/l. The protocol: White water from a liner machine using recycled fiber was taken and dry, brown, recycled packaging board was homogenized with the water so that the final consistency of fibers was 2.0%. The pulp was divided into portions and biocides and enzyme inhibitor (zinc) were added into the bottles according to the Table 2. pH of the pulp at the beginning of the test was 7.75 and ORP +175 mV. After this the bottles were incubated at +50° C. for 24 hours. At 24 h pH and ORP were measured and samples for DNA analysis were collected. The amount of Thermicanus was quantified as described in examples 1 and 2.
Biocide and enzyme inhibitor treated samples had clearly higher pH and ORP than control sample. Said biocide and/or enzyme inhibitor treatments also decrease the amount of bacteria belonging to the family Thermicanaceae or genus Thermicanus: The control sample contained 3.2*10^7 Thermicanus cells/ml, and the treated samples>90% less, 1.2-2.2*10^6 cells/ml. Thus, in the treated samples both the physical conditions were better and the amount of Thermicanus was lower than in the control sample.

Test [2] has as its system Thermicanus. The test can be described thus: Biocide trial on a paper machine using recycled fiber; Thermicanus quantified with specific qPCR. On the procedure:
The best primer sequences for a qPCR assay specific for Thermicanus were 5′-[…]-3′ (SEQ ID NO: 2) and 5′-[…]-3′ (SEQ ID NO: 3). Allowing maximum 2 mismatches, these primers detect no 16S rRNA gene of other bacterial genera. The length of the PCR product is 236 bp for Thermicanus aegyptius, the only Thermicanus species described thus far. Specific amplification (one peak in qPCR melt curve analysis) was produced from Thermicanus genomic DNA at annealing temperatures 59-63° C. in qPCR master mix with 2.2 mM Mg^2+ (50 mM salt) and SYBR Green.
Besides in silico verifications, the validity of the Thermicanus qPCR assay with the novel primers was verified with 16 board process DNA samples from RCF pulp and white water (FIG. 1). Samples were selected based on sequencing results to be taxonomically diverse, include wide range of Thermicanus, and include communities with close relatives of Thermicanus including Geobacillus (Bacillaceae). SYBR Green qPCR detection chemistry was used with hot-start qPCR mastermix on BioRad CFX96 cycler or thermal cycler, using annealing temperature of 61° C. for stringent hybridization. The Pearson correlation between the NGS and qPCR-derived Thermicanus abundance was 0.993, when total bacteria were quantified based on genomic DNA concentration (FIG. 1A), and 0.997, when total bacteria were quantified based on general bacterial qPCR (FIG. 1B). These very high correlations verify the specificity and validity of the novel Thermicanus qPCR primers for the quantification of Thermicanus in board process samples.
A biocide trial on a paper machine using recycled fiber was ran with monochloramine (MCA). Samples from stock storage and cloudy white water were taken 7 months and 1 day before starting the trial and 3 weeks after starting the MCA trial. The amount of Thermicanus was quantified with Thermicanaceae-specific qPCR as described in Example 3. MCA trial decreased Thermicanus densities in stock storage and white water by ≥99%.
In general terms: Real-time PCR tracks product formation cycle by cycle.

Structures are written as SMILES.

Regarding `O=COO` [Performic acid], in test [1], the “Thermicanus, cells/ml” value is 2.0*10^6 cells/ml.

As for `NCl` [Monochloramine, monochloramine], in test [1], the “Thermicanus, cells/ml” value is on record as 1.2*10^6 cells/ml. In addition, the “Thermicanus, white water, cells/ml” value in test [2] (cloudy white water, 3 weeks after start of MCA trial, before trial 2.7*10^8 (7 months) and 2.1*10^8 (1 day)) is listed as 7.5*10^5 cells/ml. The “decrease of Thermicanus densities” value in test [2] (stock storage and white water, 3 weeks after start of MCA trial versus before trial) was at least 99%. Further, in test [2] (stock storage, 3 weeks after start of MCA trial, before trial 5.8*10^8 (7 months) and 3.9*10^8 (1 day)), the “Thermicanus, stock storage, cells/ml” value is 3.8*10^6 cells/ml.

Source of the values: patent publication US20260035753A1, “METHODS OF DETERMINING BACTERIA AND MANUFACTURING A FIBROUS WEB AND TOOLS AND USES RELATED THERETO” (KEMIRA OYJ, priority 2020, published 2026).
